From patent publication US20170342025A1, “ANTIMICROBIAL COMPOUNDS, COMPOSITIONS AND METHODS” (Swansea University, priority 2014, published 2017)
Like-named read-outs stand apart in the source and are kept apart here.

Key:
[1] = tested on: Staphylococcus aureus (strain 9518); test: MIC determination against Staphylococcus aureus (Andrews protocol); type: cell-based; conditions: for MIC: Staphylococcus aureus, read-out: MIC S. aureus
Method: (§1) Minimum Inhibitory Concentrations (MICs) for the compounds prepared were determined against Escherichia coli (strain JM109) and Staphylococcus aureus (strain 9518) using the protocols described by Andrews (J. Antimicrob. Chemother., 2001, 48, Suppl. S1, 5-16).

[2] = tested on: Escherichia coli (strain JM109); test: MIC determination against Escherichia coli (Andrews protocol); type: cell-based; conditions: for MIC: Escherichia coli, read-out: MIC E. coli
Method: as §1

[3] = Staphylococcus aureus strain 9518

Row | Compound | MIC [1, 3] [µg/mL] | MIC ([2]; Escherichia coli strain JM109) [µg/mL] | MIC [1] [µg/mL] | MIC [2] [µg/mL] | other results
1 | N=C(N)NCc1cccc(NS(=O)(=O)c2ccc(Cl)cc2)c1.O=C(O)C(F)(F)F [Compound 55f, Amino((3-((4-chlorophenyl)sulfonamido)benzyl)amino)methaniminium 2,2,2-trifluoroacetate] | 32 to 100 | 32 to 100 |  |  | 
2 | Cl.N=C(N)N/N=C/c1cccc(OCc2cccc(Cl)c2)c1Cl [Compound 51m, (E)-Amino(2-(2-chloro-3-((3-chlorobenzyl)oxy)benzylidene)hydrazinyl) methaniminium chloride] | 10 to 32 | 1 to 10 |  |  | 
3 | N=C(N)NCc1cccc(OCc2ccccc2)c1.O=C(O)C(F)(F)F [Compound 4a, 1-{[3-(benzyloxy)phenyl]methyl}guanidine 2,2,2-trifluoroacetate] |  |  | 1 to 10 | > 100 | 
4 | N=C(N)N1CCc2ccc(Br)cc2C1.O=C(O)C(F)(F)F [Compound 26, 7-bromo-1,2,3,4-tetrahydroisoquinoline-2-carboximidamid 2,2,2-trifluoroacetate] | > 100 | > 100 |  |  | 
5 | N=C(N)NCc1ccc(NC(=O)c2ccccc2)cc1.O=C(O)C(F)(F)F [Compound 57b, Amino((4-benzamidobenzyl)amino)methaniminium 2,2,2-trifluoroacetate] |  |  | 32 to 100 | 32 to 100 | 
6 | Cl.N=C(N)N/N=C/c1cccn1Cc1cccc(Cl)c1 [Compound 61e, (E)-Amino(2-((1-(3-chlorobenzyl)-1H-pyrrol-2-yl)methylene)hydrazinyl) methaniminium chloride] | 10 to 32 | 32 to 100 |  |  | 
7 | Cl.N=C(N)N/N=C/c1nccn1Cc1ccc(Cl)cc1 [Compound 61b, (E)-Amino(2-((1-(4-chlorobenzyl)-1H-imidazol-2-yl)methylene)hydrazinyl) methaniminium chloride] | 10 to 32 | 10 to 32 |  |  | 
8 | CNC(=N)NCc1cccc(OCc2cccc(Cl)c2Cl)c1.O=C(O)C(F)(F)F [Compound 15, 3-({3-[(2,3-dichlorophenyl)methoxy]phenyl}methyl)-1-methylguanidine 2,2,2-trifluoroacetate] | 10 to 32 | 10 to 32 |  |  | 
9 | COc1ccc(CNC(=N)N)cc1OCc1cccc(Cl)c1.O=C(O)C(F)(F)F [Compound 4m, 1-({3-[(3-chlorophenyl)methoxy]-4-methoxyphenyl}methyl)guanidine 2,2,2-trifluoroacetate] |  |  | > 100 | > 100 | 
10 | COc1ccc(CNC(=N)N)cc1OCc1ccc(Cl)cc1.O=C(O)C(F)(F)F [Compound 4n, 1-({3-[(4-chlorophenyl)methoxy]-4-methoxyphenyl}methyl)guanidine 2,2,2-trifluoroacetate] |  |  | 32 to 100 | > 100 | 
11 | Cl.N=C(N)N/N=C/c1cccc(OCc2cccc(Cl)c2)c1 [Compound 49e, (E)-Amino(2-(3-((3-chlorobenzyl)oxy)benzylidene)hydrazinyl)methaniminium chloride] | 10 to 32 | 1 to 10 |  |  | 
12 | N=C(N)Nc1ccc(OCc2ccccc2)cc1.O=C(O)C(F)(F)F [Compound 23a, 1-[4-(benzyloxy)phenyl]guanidine 2,2,2-trifluoroacetate] | 1 to 10 | > 100 |  |  | 
13 | N=C(N)NCc1c(F)ccc(OCc2cccc(Cl)c2Cl)c1F.O=C(O)C(F)(F)F [Compound 4o, 1-({3-[(2,3-dichlorophenyl)methoxy]-2,6-difluorophenyl}methyl)guanidine 2,2,2-trifluoroacetate] |  |  | 1 to 10 | 1 to 10 | 
14 | N=C(N)NCc1ccc(OCc2ccccc2)cc1.O=C(O)C(F)(F)F [Compound 19a, 1-(4-(benzyloxy)benzyl)guanidine 2,2,2-trifluoroacetate] | 10 to 32 | > 100 |  |  | 
15 | Cl.N=C(N)N/N=C/c1nccn1Cc1cccc(C(F)(F)F)c1 [Compound 61c, (E)-Amino(2-((1-(3-(trifluoromethyl)benzyl)-1H-imidazol-2-yl)methylene) hydrazinyl)methaniminium chloride] | 32 to 100 | 32 to 100 |  |  | 
16 | N=C(N)NCc1ccc(OCc2ccc(Cl)c(Cl)c2)cc1.O=C(O)C(F)(F)F [Compound 19d, 1-(4-((3,4-dichlorobenzyl)oxy)benzyl)guanidine 2,2,2-trifluoroacetate] | 1 to 10 | 10 to 32 |  |  | 
17 | N=C(N)NCc1cccc(N)c1.O=C(O)C(F)(F)F [Compound 53a, Amino((3-aminobenzyl)amino)methaniminium 2,2,2-trifluoroacetate] |  |  | 32 to 100 | 32 to 100 | 
18 | N=C(N)NCc1cccc(NS(=O)(=O)c2cccc(Cl)c2)c1.O=C(O)C(F)(F)F [Compound 55e, Amino((3-((3-chlorophenyl)sulfonamido)benzyl)amino)methaniminium 2,2,2-trifluoroacetate] | 32 to 100 | 32 to 100 |  |  | 
19 | CC(=O)O.[H]/N=C(\N)NN=Cc1ccc(OC)c(OCc2ccc(Cl)c(Cl)c2)c1 [Compound 49g, (E)-2-(3-((3,4-dichlorobenzyl)oxy)-4-methoxybenzylidene)hydrazine-1-carboximidamide acetate] | 10 to 32 | 1 to 10 |  |  | 

Row | Compound | MIC [1, 3] [µg/mL] | MIC ([2]; Escherichia coli strain JM109) [µg/mL] | MIC [1] [µg/mL] | MIC [2] [µg/mL] | other results
20 | N=C(N)NCc1ccc(NS(=O)(=O)c2cccc(Cl)c2)cc1.O=C(O)C(F)(F)F [Compound 55a, Amino((4-((3-chlorophenyl)sulfonamido)benzyl)amino)methaniminium 2,2,2-trifluoroacetate] | 32 to 100 | 32 to 100 |  |  | 
21 | N=C(N)N1CCc2ccc(OCc3cccc(Cl)c3Cl)cc2C1.O=C(O)C(F)(F)F [Compound 33, 7-[(2,3-dichlorophenyl)methoxy]-1,2,3,4-tetrahydroisoquinoline-2-carboximidamide 2,2,2-trifluoroacetate] | 1 to 10 | 1 to 10 |  |  | 
22 | N=C(N)NCc1ccc(NS(=O)(=O)c2cccc(C(F)(F)F)c2)cc1.O=C(O)C(F)(F)F [Compound 55d] |  |  |  |  | MIC S. aureus [1, 3]: + (32-100 μg/mL); MIC E. coli ([2]; Escherichia coli strain JM109): + (32-100 μg/mL)
23 | N=C(N)NCc1cccc(OCc2ccc(C(F)(F)F)cc2)c1.O=C(O)C(F)(F)F [Compound 4h, 1-[(3-{[4-(trifluoromethyl)phenyl]methoxy}phenyl)methyl]guanidine 2,2,2-trifluoroacetate] |  |  | 1 to 10 | 1 to 10 | 
24 | N=C(N)Nc1ccc(CNC(=O)c2ccccc2)cc1.O=C(O)C(F)(F)F [Compound 59a, Amino((4-(benzamidomethyl)phenyl)amino)methaniminium 2,2,2-trifluoroacetate] |  |  | 32 to 100 | 32 to 100 | 
25 | N=C(N)NCc1ccc(NS(=O)(=O)c2ccc(Cl)cc2)cc1.O=C(O)C(F)(F)F [Compound 55b, Amino((4-((4-chlorophenyl)sulfonamido)benzyl)amino)methaniminium 2,2,2-trifluoroacetate] | 32 to 100 | 32 to 100 |  |  | 
26 | N=C(N)Nc1ccc(OCc2ccc(Cl)cc2)cc1.O=C(O)C(F)(F)F [Compound 23b, 1-{4-[(4-chlorophenyl)methoxy]phenyl}guanidine 2,2,2-trifluoroacetate] | > 100 | > 100 |  |  | 
27 | N=C(N)NCc1ccc(NS(=O)(=O)c2cccc(Cl)c2Cl)cc1.O=C(O)C(F)(F)F [Compound 55c, Amino((4-((2,3-dichlorophenyl)sulfonamido)benzyl)amino)methaniminium 2,2,2-trifluoroacetate] | 32 to 100 | 32 to 100 |  |  | 
28 | N=C(N)NCc1cccc(OCc2ccc(Cl)cc2Cl)c1.O=C(O)C(F)(F)F [Compound 4d, 1-({3-[(2,4-dichlorophenyl)methoxy]phenyl}methyl)guanidine 2,2,2-trifluoroacetate] |  |  | > 100 | 1 to 10 | 
29 | N=C(N)NCc1cccc(OCc2ccc(F)cc2)c1.O=C(O)C(F)(F)F [Compound 4k, 1-({3-[(4-fluorophenyl)methoxy]phenyl}methyl)guanidine 2,2,2-trifluoroacetate] |  |  | 32 to 100 | 10 to 32 | 
30 | N=C(N)Nc1ccc(CNS(=O)(=O)c2ccccc2)cc1.O=C(O)C(F)(F)F [Compound 59b, Amino((4-(phenylsulfonamidomethyl)phenyl)amino)methaniminium 2,2,2-trifluoroacetate] |  |  | 32 to 100 | 32 to 100 | 
31 | N=C(N)NCc1cccc(NC(=O)c2ccccc2)c1.O=C(O)C(F)(F)F [Compound 57a, Amino((3-benzamidobenzyl)amino)methaniminium 2,2,2-trifluoroacetate] |  |  | 32 to 100 | 32 to 100 | 
32 | Cl.N=C(N)N/N=C/c1nccn1Cc1cccc(Cl)c1 [Compound 61a, (E)-amino(2-((1-(3-chlorobenzyl)-1H-imidazol-2-yl)methylene)hydrazinyl) methaniminium chloride] | 32 to 100 | 32 to 100 |  |  | 
33 | CN(Cc1cccc(OCc2cccc(Cl)c2Cl)c1)C(=N)N.Cl [Compound 10a, 1-({3-[(2,3-dichlorophenyl)methoxy]phenyl}methyl)-1-methylguanidine hydrochloride] | 10 to 32 | 32 to 100 |  |  | 
34 | N=C(N)NCc1cccc(OCc2cc(Cl)ccc2Cl)c1.O=C(O)C(F)(F)F [Compound 4f, 1-({3-[(2,5-dichlorophenyl)methoxy]phenyl}methyl)guanidine 2,2,2-trifluoroacetate] |  |  | 1 to 10 | 10 to 32 | 
35 | N=C(N)NCc1cccc(OCc2ccc(Br)cc2)c1.O=C(O)C(F)(F)F [Compound 4j, 1-({3-[(4-bromophenyl)methoxy]phenyl}methyl)guanidine 2,2,2-trifluoroacetate] |  |  | 10 to 32 | 1 to 10 | 
36 | N=C(N)NCc1cccc(OCc2cccc(C(F)(F)F)c2)c1.O=C(O)C(F)(F)F [Compound 4i, 1-[(3-{[3-(trifluoromethyl)phenyl]methoxy}phenyl)methyl]guanidine 2,2,2-trifluoroacetate] |  |  | 1 to 10 | 1 to 10 | 
37 | N=C(N)Nc1ccc(OCc2cccc(Cl)c2)cc1.O=C(O)C(F)(F)F [Compound 23c, 1-{4-[(3-chlorophenyl)methoxy]phenyl}guanidine 2,2,2-trifluoroacetate] | 10 to 32 | > 100 |  |  | 
